Results on eight compounds are retold here after patent US6080771A, “DC107 derivatives” (Kyowa Hakko Kogyo Co., Ltd., priority 1996, dated 2000).

≈ marks a conversion by molar mass, not a printed value. Read-outs that look alike come from different tables or passages of the source.

Data set [1] has as its system Enterococcus hirae ATCC 10541. To be noted: pH 7.
Protocol: (§1) Antimicrobial activity was determined by the agar dilution method using a culture medium (pH 7) prepared by dissolving 3 g of Bacto-Tryptone (manufactured by Difco, Co.), 3 g of meat extract, 1 g of yeast extract, 1 g of glucose, and 16 g of agar in 1 l of water.
EH: Enterococcus hirae ATCC 10541
In data set [2] the test system is Staphylococcus aureus ATCC 6538P. Briefly: Antimicrobial activity, agar dilution method (MIC), SA. In kind it is cell-based. The note with it: ATCC6538P, agar dilution, pH 7, read-out: MIC, SA. An excerpt: | SA: Staphylococcus aureus ATCC 6538P
A general note: In agar dilution, organisms are placed on agar that contains the substance at set levels.

Data set [3] relates to Klebisiella pneumoniae ATCC 10031. As to the kind of experiment: Antimicrobial activity, agar dilution method (MIC), KP. In kind it is cell-based. To be noted: agar dilution, pH 7; read-out: MIC, KP. An excerpt: | KP: Klebisiella pneumoniae ATCC 10031
Data set [4] concerns Bacillus substilis NO. 10707. As to the kind of experiment: Antimicrobial activity, agar dilution method (MIC), BS. The note with it: NO.10707, agar dilution, pH 7, read-out: MIC, BS. In kind it is cell-based. From the text: | BS: Bacillus substilis NO. 10707
For data set [5], the system named is Sarcoma 180 mouse solid tumor. Briefly: Antitumor activity against Sarcoma 180 mouse solid tumor. In kind it is in vivo, male ddY mice. The note with it: Sarcoma-180, iv, 168 h, single i.v., tumor volume on day 7 from transplant, read-out: T/C (tumor volume ratio treated/control). The protocol:
To a ddY mouse were intraperitoneally transplanted 5×10^6 sarcoma 180 cells. On the seventh day from the transplant, the cells were collected from the ascites, washed once with sterilized physiological saline, and then diluted with sterilized physiological saline to prepare a cell suspension having a concentration of 5×10^7 cells/mL. This suspension was transplanted in an amount of 0.01 mL to a subcutaneous part of the right axilla of each of male ddY mice each weighing 20±1 g.
A test compound was dissolved in physiological saline containing polyoxyethylene sorbitan monolaurate. At 24 hours after the tumor transplant, 0.2 mL of the solution was intravenously administered to the tail of each of a group of five mice.

A further data set deals with Escherichia coli ATCC 26. Briefly: Antimicrobial activity, agar dilution method (MIC), EC. In kind it is cell-based. From the text: | EC: Escherichia coli ATCC 26
For data set [6], the system named is Enterococcus hirae ATCC 10541. Briefly: Antimicrobial activity, agar dilution method (MIC), EH. To be noted: pH 7.
Protocol: as §1
EH: Enterococcus hirae ATCC 10541
Another data set has as its system HeLa S3 cells. Briefly: HeLa S3 cell growth inhibition test (Neutral Red). In kind it is cell-based. To be noted: Homo sapiens, read-out: HeLa S3 Cell Growth Inhibition Activity, IC50. The protocol: In each well of a 96-well microtiter plate was placed 0.1 mL of HeLa S3 cells having a concentration of 8×10^3 cells/mL and prepared in an MEM culture medium containing 10% fetal bovine serum and 2 mM glutamine. After the cells were incubated overnight at 37° C. in a carbon dioxide incubator, a test compound suitably diluted with a medium was added to the wells in an amount of 0.05 mL for each well. The cells were incubated at 37° C. for 72 hours in a carbon dioxide incubator. After the culture supernatant was removed, 0.1 mL of a culture medium containing 0.02% Neutral Red was added to each well. The cells were then incubated at 37° C. for 1 hour in a carbon dioxide incubator to dye the cells. After the culture supernatant was removed, each residue was rinsed once with physiological saline and the pigment was extracted with 0.001N hydrochloric acid/30% ethanol. The absorbance at 550 nm of each extract was measured with a microplate reader. The drug concentration required for the 50% inhibition of cell growth, which is referred to as IC50, was calculated by comparing the absorbance for untreated cells with those for cells treated with the drug in known concentrations.

For data set [7] the following is noted: background, Japanese Published Unexamined Patent Application No. 112988/89; cited from earlier work.
Another data set has as its system various bacteria. The note with it: background, Japanese Published Unexamined Patent Application No. 112988/89; cited from earlier work.
[8] abbreviates: ATCC26, agar dilution, pH 7, read-out: MIC, EC.
[9] abbreviates: ATCC26, pH 7, read-out: MIC, EC.

Usually MIC stands for the lowest concentration that inhibits growth of the organism. With `COCCOCCOCC(=O)OCCOCCOCCOCCOCC(=O)OC1/C=C(\C)CCC2(C(C)(O)C(=O)SCc3oc(=O)oc3C)CC(=O)N(C(C)c3nc(cs3)/C=C\C=C\C1=O)[S+]2[O-]` (centres unmarked) [Compound 39], in data set [1], the “MIC, EH” value turned out to be 1.3 µg/mL (≈ 1.28 µM). The MIC in data set [2] amounted to 5.2 µg/mL (≈ 5.11 µM); in data set [3] it was 2.6 µg/mL (≈ 2.56 µM); in data set [4], 2.6 µg/mL (≈ 2.56 µM). For the same compound, the response vs control in vivo at 16 mg/kg in [5] (16 mg/kg) stood at 38%.

The term IC50 denotes the concentration that inhibits the measured activity by half. For the compound `CC(=O)OCC1OC(OC2C=C(C)CCC3(CC(=O)NC(C)c4nc(cs4)C=CC=CC2=O)[S+]([O-])SC(=O)C3(C)O)C=CC1OC(C)=O` (centres unmarked) [Compound 50], the minimum inhibitory concentration (MIC) was 0.02 µg/mL (≈ 0.0277 µM) in data set [2], 0.16 µg/mL (≈ 0.221 µM) in data set [3], 0.16 µg/mL (≈ 0.221 µM) with Escherichia coli ATCC 26 (setting [8]) and 0.02 µg/mL (≈ 0.0277 µM) in [4]. The “MIC, EH” value in [6] worked out at 0.020 µg/mL (≈ 0.0277 µM). The IC50 with HeLa S3 cells (HeLa S3, 72 hours, 37° C.) stood at 3.5 nM.

As to `C/C1=C\C(O)C(=O)/C=C/C=C\c2csc(n2)C(C)NC(=O)CC2(CC1)[S+]([O-])SC(=O)C2(C)O` (centres unmarked) [DC107], the antitumor activity result in [7] is listed as “antitumor activity”. Also, the antimicrobial activity entry in the data set with various bacteria is on record as “antimicrobial activity against various bacteria”.

Consider `COCCOCCOCCOCCOCCOCC(=O)OC1/C=C(\C)CCC2(CC(=O)NC(C)c3nc(cs3)/C=C\C=C\C1=O)[S+]([O-])SC(=O)C2(C)O` (centres unmarked) [Compound 5], for which the MIC in data set [2] amounted to 0.4 µg/mL (≈ 0.498 µM); in [3] it was 0.39 µg/mL (≈ 0.486 µM); in the data set on Escherichia coli ATCC 26 (setting [9]), 3.1 µg/mL (≈ 3.86 µM); in [4] it was 0.2 µg/mL (≈ 0.249 µM). Further, the “MIC, EH” value in data set [6] is 0.20 µg/mL (≈ 0.249 µM). Also, in [5], the response vs control in vivo at 8 mg/kg amounted to 30%. Besides, the IC50 in the data set on HeLa S3 cells (HeLa S3, 72 h) came to 67 nM.

As to `CC(=O)OC[C@H]1OC(OC2/C=C(\C)CCC3(CC(=O)NC(C)c4nc(cs4)/C=C\C=C\C2=O)[S+]([O-])SC(=O)C3(C)O)C[C@@H](OC(C)=O)[C@@H]1OC(C)=O` (some centres unmarked) [Compound 53], the MIC in [2] came to 0.098 µg/mL (≈ 0.125 µM); in data set [3] it was 1.6 µg/mL (≈ 2.04 µM); with Escherichia coli ATCC 26 (setting [9]) it was 25 µg/mL (≈ 31.9 µM); in data set [4] it was 0.098 µg/mL (≈ 0.125 µM). In addition, in [6], the “MIC, EH” value was determined as 0.20 µg/mL (≈ 0.255 µM). Further, the IC50 in the data set with HeLa S3 cells (HeLa S3, 72 h) was determined as 16 nM.

As for `COCCOCCOCCOCCOCC(=O)OC1/C=C(\C)CCC2(C(C)(O)C(=O)SCc3oc(=O)oc3C)CC(=O)N(C(C)c3nc(cs3)/C=C\C=C\C1=O)[S+]2[O-]` (centres unmarked) [Compound 14], the “MIC, EH” value in data set [1] amounted to 2.6 µg/mL (≈ 2.99 µM). The MIC in [2] was 5.2 µg/mL (≈ 5.97 µM); in data set [4] it was 2.6 µg/mL (≈ 2.99 µM). In the data set on HeLa S3 cells (HeLa S3, 72 hours, 37° C.), the concentration for half-maximal inhibition (IC50) worked out at 35 nM.

For `COCCOCCOCC(=O)OC1/C=C(\C)CCC2(CC(=O)NC(C)c3nc(cs3)/C=C\C=C\C1=O)[S+]([O-])SC(=O)C2(C)O` (centres unmarked) [Compound 2], the “MIC, EH” value in data set [1] was 0.23 µg/mL (≈ 0.343 µM). In addition, the MIC in data set [2] worked out at 0.13 µg/mL (≈ 0.194 µM); in data set [3], 0.23 µg/mL (≈ 0.343 µM); with Escherichia coli ATCC 26 (setting [8]), 1.8 µg/mL (≈ 2.68 µM); in data set [4] it was 0.13 µg/mL (≈ 0.194 µM). In addition, the response vs control in vivo at 4 mg/kg in data set [5] (4.0 mg/kg) was determined as 30%. Moreover, the IC50 in the data set on HeLa S3 cells (HeLa S3, 72 hours, 37° C.) amounted to 25 nM.

`COCCOCCOCC(=O)OC1/C=C(\C)CCC2(C(C)(O)C(=O)SCc3oc(=O)oc3C)CC(=O)N(C(C)c3nc(cs3)/C=C\C=C\C1=O)[S+]2[O-]` (centres unmarked) [Compound 12]: the “MIC, EH” value in data set [1] stood at 42 µg/mL (≈ 53.6 µM). The MIC in data set [2] stood at 42 µg/mL (≈ 53.6 µM); in data set [3] it was 42 µg/mL (≈ 53.6 µM); in the data set with Escherichia coli ATCC 26 (setting [8]) it was 4.2 µg/mL (≈ 5.36 µM); in data set [4], 42 µg/mL (≈ 53.6 µM). Also, the response vs control in vivo at 8 mg/kg in data set [5] was 39%. Besides, the IC50 in the data set on HeLa S3 cells (HeLa S3, 72 hours, 37° C.) stood at 30 nM.
